Measured values: patent publication US20150239889A1, “PYRAZOLOPYRIMIDINE COMPOUND” (MITSUBISHI TANABE PHARMA CORPORATION, priority 2012, published 2015)

Legend:
human HIF-PHD3 = molecular target: T1, human HIF-PHD3 (Homo sapiens, UniProt Q9H6Z9); assay: HIF-PHD inhibition assay (fluorescence polarization), human HIF-PHD3; type: biochemical; conditions: 2-oxoglutaric acid 166 μmol/L
T1 construct: purchased CrystalGenomics Ltd
Description: (§1) The activity of the test compound to inhibit human HIF-PHD2 and human HIF-PHD3 was determined.
(§2) The value of enzyme activity was calculated by subtracting the value of fluorescence polarization before addition of the enzyme from the value of fluorescence polarization after addition of enzyme (mP value).
(§3) FAM: 5′-fluoresceinamide ACA: aminocaproic acid

human HIF-PHD2 = molecular target: T2, human HIF-PHD2 (Homo sapiens, UniProt Q9GZT9); assay: HIF-PHD inhibition assay (fluorescence polarization), human HIF-PHD2; type: biochemical; conditions: 2-oxoglutaric acid 3.33 μmol/L
T2 construct: purchased CrystalGenomics Ltd
Description: as §1, §2, §3

T1 sequence (Q9H6Z9 whole entry): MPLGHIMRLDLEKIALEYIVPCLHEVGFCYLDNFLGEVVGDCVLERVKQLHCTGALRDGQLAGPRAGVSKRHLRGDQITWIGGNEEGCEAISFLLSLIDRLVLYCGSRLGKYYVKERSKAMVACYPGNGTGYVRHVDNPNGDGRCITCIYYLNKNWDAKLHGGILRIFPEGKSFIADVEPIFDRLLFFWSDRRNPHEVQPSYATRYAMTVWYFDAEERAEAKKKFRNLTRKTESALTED
T2 sequence (Q9GZT9 2-426 limits assumed): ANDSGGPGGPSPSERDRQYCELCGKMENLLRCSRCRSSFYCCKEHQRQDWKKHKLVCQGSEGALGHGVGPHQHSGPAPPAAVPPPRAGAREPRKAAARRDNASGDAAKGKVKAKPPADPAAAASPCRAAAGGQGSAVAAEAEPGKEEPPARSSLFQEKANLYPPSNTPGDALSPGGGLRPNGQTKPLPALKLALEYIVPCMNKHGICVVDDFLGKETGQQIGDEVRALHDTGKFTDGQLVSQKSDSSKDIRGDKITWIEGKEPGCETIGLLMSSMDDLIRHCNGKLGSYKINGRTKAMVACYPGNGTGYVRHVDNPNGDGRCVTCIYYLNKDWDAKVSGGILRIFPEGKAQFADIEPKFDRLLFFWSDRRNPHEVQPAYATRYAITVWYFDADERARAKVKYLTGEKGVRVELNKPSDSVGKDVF

SMILES | IC50 (human HIF-PHD3) | IC50 (human HIF-PHD2)
CC(c1cc(Cl)cc(Cl)c1)n1ncc2nc(-n3cc(C(=O)O)cn3)nc(O)c21 (centres unmarked) [Example 307] | 500 nM | 45 nM
O=C(O)c1cnn(-c2nc(O)c3c(cnn3Cc3ccc(-c4ccc(Cl)cc4Cl)cc3)n2)c1 [Example 72] | 280 nM | 28 nM
CCC(c1cc(C(F)(F)F)cc(C(F)(F)F)c1)n1ncc2nc(-n3cc(C(=O)O)cn3)nc(O)c21 (centres unmarked) [Example 334] | 2500 nM | 260 nM
Cc1cc(F)cc(C(C)n2ncc3nc(-n4cc(C(=O)O)cn4)nc(O)c32)c1 (centres unmarked) [Example 299] | 700 nM | 79 nM
Cc1nn([C@@H](C)c2cc(F)ccc2F)c2c(O)nc(-n3cc(C(=O)O)cn3)nc12 [Example 453] | 1500 nM | 250 nM
O=C(O)c1cnn(-c2nc(O)c3c(cnn3C(c3ccc(F)c(Cl)c3)C3CC3)n2)c1 (centres unmarked) [Example 370] | 380 nM | 56 nM
O=C(O)c1cnn(-c2nc(O)c3c(n2)c(Cl)nn3CC2CCCC2)c1 [Example 221] | 670 nM | 44 nM
O=C(O)c1cnn(-c2nc(O)c3c(cnn3C3Cc4ccccc4C3)n2)c1 [Example 395] | 430 nM | 64 nM
Cc1nn(Cc2ccc3ccccc3c2)c2c(O)nc(-n3cc(C(=O)O)cn3)nc12 [Example 445] | 400 nM | 20 nM
O=C(O)c1cnn(-c2nc(O)c3c(cnn3Cc3cc(F)c(-c4ccccc4F)cc3F)n2)c1 [Example 100] | 89 nM | 16 nM
CC1(C)CCC(n2nc(F)c3nc(-n4cc(C(=O)O)cn4)nc(O)c32)CC1 [Example 481] | 480 nM | 71 nM
O=C(O)c1cnn(-c2nc(O)c3c(cnn3CCCOc3ccc(Cl)cc3)n2)c1 [Example 184] | 360 nM | 10 nM
CC(C)[C@@H]1CC[C@@H](C)C[C@@H]1n1ncc2nc(-n3cc(C(=O)O)cn3)nc(O)c21 [Example 403] | 940 nM | 140 nM
O=C(O)c1cnn(-c2nc(O)c3c(cnn3Cc3ccc(-c4ccc(C(F)(F)F)cc4Cl)cc3)n2)c1 [Example 73] | 270 nM | 31 nM
Cc1cc(Cn2ncc3nc(-n4cc(C(=O)O)cn4)nc(O)c32)ccc1-c1ccccc1 [Example 92] | 50 nM | 11 nM
O=C(O)c1cnn(-c2nc(O)c3c(cnn3C(c3ccc(F)cc3)C3CC3)n2)c1 (centres unmarked) [Example 366] | 540 nM | 120 nM
Cc1ccc(C(C)n2ncc3nc(-n4cc(C(=O)O)cn4)nc(O)c32)cc1Cl (centres unmarked) [Example 297] | 660 nM | 66 nM
CC(c1ccc(N2CCC(F)CC2)cc1)n1ncc2nc(-n3cc(C(=O)O)cn3)nc(O)c21 (racemic) [Example 424] | 480 nM | 44 nM
C[C@@H](c1cc(F)ccc1F)n1ncc2nc(-n3cc(C(=O)O)cn3)nc(O)c21 [Example 261] |  | 72 nM
CC(c1ccc(Cl)c(C(F)(F)F)c1)n1ncc2nc(-n3cc(C(=O)O)cn3)nc(O)c21 (centres unmarked) [Example 315] | 880 nM | 45 nM
CC[C@@H](c1ccc(OC(F)(F)F)c(F)c1)n1ncc2nc(-n3cc(C(=O)O)cn3)nc(O)c21 [Example 352] | 420 nM | 32 nM
CC(c1cc(Cl)cc(Cl)c1)n1ncc2nc(-n3cc(C(=O)O)cn3)nc(O)c21 (single isomer, unassigned) [Example 308] | 510 nM | 54 nM
C[C@@H](C1CCN(c2cccc(C(F)(F)F)c2)CC1)n1ncc2nc(-n3cc(C(=O)O)cn3)nc(O)c21 [Example 434] | 420 nM | 28 nM
O=C(O)c1cnn(-c2nc(O)c3c(n2)c(F)nn3C2CCCCCCC2)c1 [Example 482] | 1300 nM | 43 nM
Cc1ccc(Cl)cc1C(C)n1ncc2nc(-n3cc(C(=O)O)cn3)nc(O)c21 (centres unmarked) [Example 311] | 770 nM | 67 nM
C[C@@H](c1cccc(C(F)(F)F)c1)n1ncc2nc(-n3cc(C(=O)O)cn3)nc(O)c21 [Example 258] | 420 nM | 38 nM
Cc1ccc(Cl)cc1C(C)n1ncc2nc(-n3cc(C(=O)O)cn3)nc(O)c21 (single isomer, unassigned) [Example 312] | 510 nM | 110 nM
Cc1nn(CCC2CCCCC2)c2c(O)nc(-n3cc(C(=O)O)cn3)nc12 [Example 231] | 470 nM | 21 nM

SMILES | IC50 (human HIF-PHD3) | IC50 (human HIF-PHD2)
Cc1cc(Cl)ccc1-c1ccc(Cn2ncc3nc(-n4cc(C(=O)O)cn4)nc(O)c32)cc1 [Example 71] | 110 nM | 16 nM
Cc1cc(C(C)n2ncc3nc(-n4cc(C(=O)O)cn4)nc(O)c32)ccc1Cl (centres unmarked) [Example 293] | 510 nM | 61 nM
O=C(O)c1cnn(-c2nc(O)c3c(cnn3C[C@H]3CCN(c4cccc(Cl)c4)C3)n2)c1 [Example 430] | 240 nM | 19 nM
O=C(O)c1cnn(-c2nc(O)c3c(cnn3C3CCCCCCC3)n2)c1 [Example 394] | 420 nM | 33 nM
Cc1ccc([C@H](C)n2ncc3nc(-n4cc(C(=O)O)cn4)nc(O)c32)cc1C(F)(F)F [Example 278] | 420 nM | 120 nM
CC(c1cc(F)cc(Cl)c1)n1ncc2nc(-n3cc(C(=O)O)cn3)nc(O)c21 (single isomer, unassigned) [Example 306] | 450 nM | 62 nM
CC1CCCC(n2ncc3nc(-n4cc(C(=O)O)cn4)nc(O)c32)C1 (single isomer, unassigned) [Example 401] | 1200 nM | 48 nM
C[C@@H](c1c(F)cccc1F)n1ncc2nc(-n3cc(C(=O)O)cn3)nc(O)c21 [Example 256] |  | 160 nM
Cc1nn([C@@H](C)c2cccc(F)c2)c2c(O)nc(-n3cc(C(=O)O)cn3)nc12 [Example 449] | 1200 nM | > 300 nM
CCC(c1ccc(C)cc1)n1ncc2nc(-n3cc(C(=O)O)cn3)nc(O)c21 (single isomer, unassigned) [Example 329] | 590 nM | 120 nM
O=C(O)c1cnn(-c2nc(O)c3c(cnn3C(c3cccc(Cl)c3)C3CC3)n2)c1 (centres unmarked) [Example 374] | 630 nM | 51 nM
CC(c1ccc(F)c(C(F)(F)F)c1)n1ncc2nc(-n3cc(C(=O)O)cn3)nc(O)c21 (centres unmarked) [Example 303] | 610 nM | 78 nM
CC(c1ccc(Cl)c(C(F)(F)F)c1)n1ncc2nc(-n3cc(C(=O)O)cn3)nc(O)c21 (single isomer, unassigned) [Example 316] | 470 nM | 29 nM
C[C@@H](c1cc(C(F)(F)F)ccc1F)n1ncc2nc(-n3cc(C(=O)O)cn3)nc(O)c21 [Example 288] | 480 nM | 180 nM
CC(c1ccc(F)c(C(F)(F)F)c1)n1ncc2nc(-n3cc(C(=O)O)cn3)nc(O)c21 (single isomer, unassigned) [Example 304] | 230 nM | 15 nM
CCC(c1ccc(F)c(Cl)c1)n1ncc2nc(-n3cc(C(=O)O)cn3)nc(O)c21 (single isomer, unassigned) [Example 338] | 420 nM | 28 nM
CCC(CC)n1ncc2nc(-n3cc(C(=O)O)cn3)nc(O)c21 [Example 487] | 530 nM | 81 nM
O=C(O)c1cnn(-c2nc(O)c3c(cnn3CC3(c4ccccc4)CC3)n2)c1 [Example 122] |  | 74 nM
C[C@@H](c1ccc(F)cc1F)n1nc(C2CC2)c2nc(-n3cc(C(=O)O)cn3)nc(O)c21 [Example 460] |  | 180 nM
CC(c1cc(Cl)ccc1Cl)n1ncc2nc(-n3cc(C(=O)O)cn3)nc(O)c21 (racemic) [Example 264] | 490 nM | 
CCC(c1ccc(C)c(Cl)c1)n1ncc2nc(-n3cc(C(=O)O)cn3)nc(O)c21 (centres unmarked) [Example 348] |  | 110 nM
O=C(O)c1cnn(-c2nc(O)c3c(n2)c(Cc2ccccc2)nn3CC2CCCCC2)c1 [Example 504] |  | 160 nM
O=C(O)c1cnn(-c2nc(O)c3c(cnn3Cc3ccc(N4CCCC4=O)cc3)n2)c1 [Example 419] |  | 44 nM
O=C(O)c1cnn(-c2nc(O)c3c(cnn3CC3CCNCC3)n2)c1 [Example 169] | 2100 nM | 
CCC(c1cc(C(F)(F)F)cc(C(F)(F)F)c1)n1ncc2nc(-n3cc(C(=O)O)cn3)nc(O)c21 (single isomer, unassigned) [Example 335] |  | 76 nM
C[C@@H](c1cc(Cl)ccc1Cl)n1ncc2nc(-n3cc(C(=O)O)cn3)[nH]c(=O)c21 [Example 263] | 610 nM | 
Cc1cc(Cl)cc([C@@H](C)n2ncc3nc(-n4cc(C(=O)O)cn4)nc(O)c32)c1 [Example 266] |  | 73 nM
